pEC50: −log10 of the molar value.
What was measured:
CFTR G551D mutant = target: T1, CFTR G551D mutant (Homo sapiens, UniProt P13569, G551D); assay: YFP-halide influx assay for the CFTR-G551D mutation; format: cell-based; conditions: HEK293 cells, forskolin 10.67 μM
T1 construct: expressed in transfected cells; host or cells: HEK293 (reverse transfection with plasmid)
From the text: The YFP halide influx assay measures the functionality of the cystic fibrosis Transmembrane Conductance regulator (CFTR) channels. The assay is used to evaluate the capacity of compounds to increase the channel opening of existing mutant CFTR channels in the membrane. It makes use of the observation that the yellow fluorescent protein (YFP) variant YFP H148Q, I152L, […] has its fluorescence substantially quenched by halide ions like Cl^− and I^−. (Galietta, Haggie, & Verkman, 2001)
For this purpose, HEK293-cells are seeded in 96 well plates. During seeding, the cells are reverse-transfected with plasmid vectors that direct the expression of the CFTR G551D mutant and of the YFP reporter. Cells are incubated at 37° C., 5% CO2 for 24 hours so as to allow for sufficient expression of the CFTR protein.
(§1) The I^−-induced quenching of fluorescence is recorded immediately after injection of I^− for 7 seconds. The capacity of a compound to increase the channel opening is directly correlated with the decrease in fluorescence, and is expressed as (1-(fluorescence after 7 seconds (F)/fluorescence before injection (F0))) and an EC50 can be derived from a (1-F/F0) vs compound concentration plot.

CFTR ΔF508 mutant = target: T2, CFTR ΔF508 mutant (Homo sapiens, UniProt P13569, DEL508-508); assay: YFP-halide influx assay for the CFTR-ΔF508 mutation (384 well, FDSS/μCell); format: cell-based; conditions: CFBE41o- cells, CFTR-ΔF508, 1×D-PBS, fluorescence after 36 seconds
T2 construct: expressed in transfected cells; host or cells: CFBE41o- (adenoviral transduction)
From the text: The YFP halide influx assay measures the functionality of the cystic fibrosis Transmembrane Conductance regulator (CFTR) channels in the cystic fibrosis bronchial epithelium cell line CFBE41o-. The assay is used to evaluate the capacity of compounds to increase the open probability of existing CFTR channels in the membrane. It makes use of the observation that the yellow fluorescent protein (YFP) variant YFP H148Q, I152L has its fluorescence substantially quenched by halide ions like Cl— and I—. (Galietta, Haggie, & Verkman, 2001) (Nagai, et al., 2002)
For this purpose, CFBE41o-cells are seeded in 384 well plates (3000 CFBE cells/well). One day after seeding, the CFBE cells are transduced with adenoviral vectors that direct the expression of the CFTR ΔF508 mutant and of the YFP reporter. Cells are incubated at 27° C., 5% CO2 for 24 hours so as to allow for the proper folding and migration to the membrane of the CFTR channel or treated with a CFTR modulator during 24 h at 37° C.
as §1, with “I— induced” for “I^−-induced”, “recorded […]” for “recorded”, “I—” for “I^−”, “2 min on an FDSS/μCell (Hamamatsu).” for “7 seconds.”, “36” for “7”

T2 sequence (P13569 with tags, fused parts or gaps DEL508-508): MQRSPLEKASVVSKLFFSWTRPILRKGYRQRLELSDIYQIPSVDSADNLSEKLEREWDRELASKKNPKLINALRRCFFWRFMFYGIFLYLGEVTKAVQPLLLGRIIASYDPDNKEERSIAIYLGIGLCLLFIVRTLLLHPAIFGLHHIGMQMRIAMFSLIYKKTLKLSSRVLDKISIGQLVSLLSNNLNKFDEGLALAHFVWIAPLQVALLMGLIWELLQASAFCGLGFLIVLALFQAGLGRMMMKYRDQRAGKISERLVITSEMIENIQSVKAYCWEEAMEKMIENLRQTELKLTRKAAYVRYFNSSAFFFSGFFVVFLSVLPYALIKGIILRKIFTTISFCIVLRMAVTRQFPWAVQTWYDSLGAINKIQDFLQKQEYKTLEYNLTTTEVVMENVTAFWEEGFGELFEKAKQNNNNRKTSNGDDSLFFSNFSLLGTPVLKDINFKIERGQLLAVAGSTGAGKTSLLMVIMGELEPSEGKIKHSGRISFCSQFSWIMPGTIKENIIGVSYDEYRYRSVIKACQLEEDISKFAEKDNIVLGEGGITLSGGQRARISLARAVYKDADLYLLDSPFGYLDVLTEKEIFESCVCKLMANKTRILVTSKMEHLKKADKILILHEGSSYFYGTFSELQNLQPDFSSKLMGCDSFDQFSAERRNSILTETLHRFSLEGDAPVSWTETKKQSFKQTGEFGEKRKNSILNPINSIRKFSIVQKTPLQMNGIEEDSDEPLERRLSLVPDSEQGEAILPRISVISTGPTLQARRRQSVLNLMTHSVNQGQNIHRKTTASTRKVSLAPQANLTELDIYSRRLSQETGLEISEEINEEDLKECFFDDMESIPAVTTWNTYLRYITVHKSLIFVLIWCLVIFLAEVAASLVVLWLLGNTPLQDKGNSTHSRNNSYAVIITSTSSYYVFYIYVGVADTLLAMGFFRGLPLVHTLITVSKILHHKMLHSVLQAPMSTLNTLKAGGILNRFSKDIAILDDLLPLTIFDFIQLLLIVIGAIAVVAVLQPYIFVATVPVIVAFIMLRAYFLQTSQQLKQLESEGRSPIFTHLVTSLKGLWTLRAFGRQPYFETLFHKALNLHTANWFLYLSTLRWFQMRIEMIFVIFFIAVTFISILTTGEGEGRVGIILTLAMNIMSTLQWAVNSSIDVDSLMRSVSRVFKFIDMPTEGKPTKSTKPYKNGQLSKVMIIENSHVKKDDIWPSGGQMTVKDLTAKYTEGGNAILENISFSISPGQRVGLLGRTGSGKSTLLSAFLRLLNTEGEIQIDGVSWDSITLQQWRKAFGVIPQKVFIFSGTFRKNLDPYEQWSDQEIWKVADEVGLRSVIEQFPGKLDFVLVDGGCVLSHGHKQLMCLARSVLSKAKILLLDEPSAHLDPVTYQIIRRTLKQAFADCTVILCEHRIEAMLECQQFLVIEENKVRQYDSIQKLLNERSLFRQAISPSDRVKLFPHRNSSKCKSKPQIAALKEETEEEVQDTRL
T1 sequence (P13569 whole entry G551D): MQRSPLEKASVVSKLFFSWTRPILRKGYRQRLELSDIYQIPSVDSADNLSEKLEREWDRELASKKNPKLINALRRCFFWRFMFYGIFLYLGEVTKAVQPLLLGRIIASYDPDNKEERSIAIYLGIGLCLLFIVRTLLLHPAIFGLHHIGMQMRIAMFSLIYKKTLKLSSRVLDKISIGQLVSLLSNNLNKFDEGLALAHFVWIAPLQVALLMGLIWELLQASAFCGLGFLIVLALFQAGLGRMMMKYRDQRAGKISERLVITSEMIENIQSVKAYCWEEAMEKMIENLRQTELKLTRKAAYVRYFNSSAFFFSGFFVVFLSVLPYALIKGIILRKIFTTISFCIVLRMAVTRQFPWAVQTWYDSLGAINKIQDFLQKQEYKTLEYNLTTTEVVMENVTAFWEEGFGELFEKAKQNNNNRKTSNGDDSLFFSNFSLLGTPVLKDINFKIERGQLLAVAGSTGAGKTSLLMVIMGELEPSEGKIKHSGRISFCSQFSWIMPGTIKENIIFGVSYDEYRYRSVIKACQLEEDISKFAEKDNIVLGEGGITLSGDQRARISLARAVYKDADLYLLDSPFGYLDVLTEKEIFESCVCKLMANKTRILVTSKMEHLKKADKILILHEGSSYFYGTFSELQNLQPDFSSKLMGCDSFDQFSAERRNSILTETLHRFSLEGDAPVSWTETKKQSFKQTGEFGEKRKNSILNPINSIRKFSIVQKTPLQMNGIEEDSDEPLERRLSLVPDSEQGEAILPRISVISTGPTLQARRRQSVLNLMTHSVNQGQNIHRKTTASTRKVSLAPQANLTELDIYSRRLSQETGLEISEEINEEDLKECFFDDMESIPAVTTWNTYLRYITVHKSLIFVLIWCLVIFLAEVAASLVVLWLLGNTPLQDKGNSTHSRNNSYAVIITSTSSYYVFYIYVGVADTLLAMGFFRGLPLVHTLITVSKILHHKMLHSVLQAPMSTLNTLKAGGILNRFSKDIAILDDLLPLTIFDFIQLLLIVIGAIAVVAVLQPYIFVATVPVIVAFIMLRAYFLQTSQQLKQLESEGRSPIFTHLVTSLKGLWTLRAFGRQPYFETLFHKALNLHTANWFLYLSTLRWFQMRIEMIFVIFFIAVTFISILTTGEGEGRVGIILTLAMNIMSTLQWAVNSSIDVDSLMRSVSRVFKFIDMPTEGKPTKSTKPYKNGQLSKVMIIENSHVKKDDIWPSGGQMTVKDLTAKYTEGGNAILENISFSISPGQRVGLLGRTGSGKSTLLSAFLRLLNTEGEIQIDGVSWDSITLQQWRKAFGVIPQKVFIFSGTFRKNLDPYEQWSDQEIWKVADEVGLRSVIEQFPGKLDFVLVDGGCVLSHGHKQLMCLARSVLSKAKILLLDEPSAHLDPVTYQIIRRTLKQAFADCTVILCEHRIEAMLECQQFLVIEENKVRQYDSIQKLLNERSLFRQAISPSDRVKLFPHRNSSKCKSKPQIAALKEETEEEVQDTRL

| Compound | pEC50 (CFTR G551D mutant) | pEC50 (CFTR ΔF508 mutant) |
| --- | --- | --- |
| CC(CO)C(=O)Nc1sc(S(=O)(=O)c2ccc(OC(F)(F)F)cc2)cc1C(N)=O (stereo not shown) [Compound 350, 2-[(3-hydroxy-2-methyl-propanoyl)amino]-5-[4-(trifluoromethoxy)phenyl] sulfonyl-thiophene-3-carboxamide] | 6.18 | 7.41 |
| CC(CO)C(=O)Nc1sc(S(=O)(=O)c2cc(F)ccc2OC(F)(F)F)cc1C(N)=O (stereo not shown) [Compound 351, 5-[5-fluoro-2-(trifluoromethoxy)phenyl] sulfonyl-2-[(3-hydroxy-2-methyl-propanoyl)amino] thiophene-3-carboxamide] | 7.43 | 8.52 |
| C[C@H](O)C(=O)Nc1sc(S(=O)(=O)c2c(Cl)cc(F)cc2Cl)cc1C(N)=O [Compound 355, 5-(2,6-dichloro-4-fluoro-phenyl)sulfonyl-2-[[(2S)-2-hydroxypropanoyl]amino] thiophene-3-carboxamide] | 6.03 | 8.27 |
| CC(C)[C@H](O)C(=O)Nc1sc(S(=O)(=O)c2ccc(F)cc2C(F)(F)F)cc1C(N)=O [Compound 356, 5-[4-fluoro-2-(trifluoromethyl)phenyl] sulfonyl-2-[[(2S)-2-hydroxy-3-methyl-butanoyl]amino] thiophene-3-carboxamide] | 6.30 | 7.76 |
| NC(=O)c1cc(S(=O)(=O)c2ccc(OC(F)(F)F)cc2)sc1NC(=O)C1(CO)CC1 [Compound 357, 2-[[1-(hydroxymethyl)cyclopropanecarbonyl]amino]-5-[4-(trifluoromethoxy)phenyl] sulfonyl-thiophene-3-carboxamide] | 6.52 | 7.53 |
| CC(C)(O)C(=O)Nc1sc(S(=O)(=O)c2ccc(Cl)cc2)cc1C(N)=O [Compound 358, 5-(4-chlorophenyl)sulfonyl-2-[(2-hydroxy-2-methyl-propanoyl)amino] thiophene-3-carboxamide] | 5.57 | 6.96 |
| CC(CO)C(=O)Nc1sc(S(=O)(=O)c2ccc(F)cc2C(F)(F)F)cc1C(N)=O (stereo not shown) [Compound 359, 5-[4-fluoro-2-(trifluoromethyl)phenyl] sulfonyl-2-[(3-hydroxy-2-methyl-propanoyl)amino] thiophene-3-carboxamide] | 5.69 | 8.02 |
| CC(C)[C@H](O)C(=O)Nc1sc(S(=O)(=O)c2ccc(F)cc2Cl)cc1C(N)=O [Compound 361, 5-(2-chloro-4-fluoro-phenyl)sulfonyl-2-[[(2S)-2-hydroxy-3-methyl-butanoyl]amino] thiophene-3-carboxamide] | 6.55 | 8.15 |
| CC(CO)C(=O)Nc1sc(S(=O)(=O)c2ccc(Cl)cc2)cc1C(N)=O (stereo not shown) [Compound 362, 5-(4-chlorophenyl)sulfonyl-2-[(3-hydroxy-2-methyl-propanoyl)amino] thiophene-3-carboxamide] | 5.91 | 7.65 |
| NC(=O)c1cc(S(=O)(=O)c2ccc(OC(F)(F)F)cc2)sc1NC(=O)C1(CO)CCC1 [Compound 364, 2-[[1-(hydroxymethyl)cyclobutanecarbonyl]amino]-5-[4-(trifluoromethoxy)phenyl] sulfonyl-thiophene-3-carboxamide] | 6.44 | 7.52 |
| CC(C)(C)[C@H](O)C(=O)Nc1sc(S(=O)(=O)c2ccc(C(F)(F)F)cc2)cc1C(N)=O [Compound 365, 2-[[(2S)-2-hydroxy-3,3-dimethyl-butanoyl]amino]-5-[4-(trifluoromethyl)phenyl] sulfonyl-thiophene-3-carboxamide] | 6.51 | 7.52 |
| COc1ccc(OC(F)(F)F)c(S(=O)(=O)c2cc(C(N)=O)c(NC(=O)C(C)CO)s2)c1 (stereo not shown) [Compound 370, 2-[(3-hydroxy-2-methyl-propanoyl)amino]-5-[5-methoxy-2-(trifluoromethoxy)phenyl]sulfonyl-thiophene-3-carboxamide] | 7.24 | 8.60 |
| COCCOc1ccc(S(=O)(=O)c2cc(C(N)=O)c(NC(=O)C(C)(C)O)s2)cc1 [Compound 371, 2-[(2-hydroxy-2-methyl-propanoyl)amino]-5-[4-(2-methoxyethoxy)phenyl] sulfonyl-1-thiophene-3-carboxamide] | 5.48 | 6.97 |
| CC(C)(O)C(=O)Nc1sc(S(=O)(=O)c2cc(C#N)ccc2OC(F)(F)F)cc1C(N)=O [Compound 372, 5-[5-cyano-2-(trifluoromethoxy)phenyl] sulfonyl-2-[(2-hydroxy-2-methyl-propanoyl)amino] thiophene-3-carboxamide] | 7.14 | 8.32 |
| CC(C)(O)C(=O)Nc1sc(S(=O)(=O)c2ccc(OC(F)(F)F)c(F)c2F)cc1C(N)=O [Compound 378, 5-[2,3-difluoro-4-(trifluoromethoxy)phenyl] sulfonyl-2-[(2-hydroxy-2-methyl-propanoyl)amino] thiophene-3-carboxamide] | 5.73 | 7.58 |
| CC(C)(O)C(=O)Nc1sc(S(=O)(=O)c2ccc(C#N)cc2)cc1C(N)=O [Compound 381, 5-(4-cyanophenyl)sulfonyl-2-[(2-hydroxy-2-methyl-propanoyl)amino] thiophene-3-carboxamide] | 5.88 | 7.25 |
| C[C@H](CO)C(=O)Nc1sc(S(=O)(=O)c2ccc(OC(F)(F)F)cc2)cc1C(N)=O [Compound 382, 2-[[(2R)-3-hydroxy-2-methyl-propanoyl]amino]-5-[4-(trifluoromethoxy)phenyl] sulfonyl-thiophene-3-carboxamide] | 6.06 | 7.18 |
| Cc1cc(S(=O)(=O)c2cc(C(N)=O)c(NC(=O)C(C)(C)O)s2)ncc1F [Compound 383, 5-[(5-fluoro-4-methyl-2-pyridyl)sulfonyl]-2-[(2-hydroxy-2-methyl-propanoyl)amino] thiophene-3-carboxamide] | 5.58 | 6.87 |
| Cc1ccc(S(=O)(=O)c2cc(C(N)=O)c(NC(=O)C(C)(C)O)s2)nc1 [Compound 384, 2-[(2-hydroxy-2-methyl-propanoyl)amino]-5-[(5-methyl-2-pyridyl)sulfonyl] thiophene-3-carboxamide] | 5.56 | 6.80 |
| CC(C)(O)C(=O)Nc1sc(S(=O)(=O)c2ccc(Cl)nc2)cc1C(N)=O [Compound 385, 5-[(6-chloro-3-pyridyl)sulfonyl]-2-[(2-hydroxy-2-methyl-propanoyl)amino] thiophene-3-carboxamide] | 5.93 | 7.20 |
| CC(CO)C(=O)Nc1sc(S(=O)(=O)c2cc(Cl)ccc2OC(F)(F)F)cc1C(N)=O (stereo not shown) [Compound 386, 5-[5-chloro-2-(trifluoromethoxy)phenyl] sulfonyl-2-[(3-hydroxy-2-methyl-propanoyl)amino] thiophene-3-carboxamide] | 7.59 | 8.70 |
| CC(C)(O)C(=O)Nc1sc(S(=O)(=O)c2ccc(Cl)cc2OC(F)(F)F)cc1C(N)=O [Compound 388, 5-[4-chloro-2-(trifluoromethoxy)phenyl] sulfonyl-2-[(2-hyroxy-2-methyl-propanoyl)amino] thiophene-3-carboxamide] | 6.16 | 7.36 |
| CC(CO)C(=O)Nc1sc(S(=O)(=O)c2ccc(OC(F)(F)F)cn2)cc1C(N)=O (stereo not shown) [Compound 392, 2-[(3-hydroxy-2-methyl-propanoyl)amino]-5-[[5-(trifluoromethoxy)-2-pyridyl]sulfonyl] thiophene-3-carboxamide] | 5.79 | 7.07 |
| CC(C)(O)C(=O)Nc1sc(S(=O)(=O)c2ccc(C(F)F)cn2)cc1C(N)=O [Compound 395, 5-[[5-(difluoromethyl)-2-pyridyl]sulfonyl]-2-[(2-hydroxy-2-methyl-propanoyl)amino] thiophene-3-carboxamide] | 5.73 | 6.53 |
| CC(O)C(=O)Nc1sc(S(=O)(=O)c2ccc(C(F)(F)F)cn2)cc1C(N)=O (stereo not shown) [Compound 396, 2-(2-hydroxypropanoylamino)-5-[[5-(trifluoromethyl)-2-pyridyl]sulfonyl] thiophene-3-carboxamide] | 5.87 | 6.96 |
| CC(O)C(=O)Nc1sc(S(=O)(=O)c2ccc(C(F)(F)F)cc2)cc1C(N)=O (stereo not shown) [Compound 398, 2-(2-hydroxypropanoylamino)-5-[4-(trifluoromethyl)phenyl]sulfonyl-thiophene-3-carboxamide] | 6.29 | 7.64 |
